These results are taken from patent US12239729B2, “TRPV3 agonists for the treatment of skin conditions” (Soricimed Biopharma Inc., priority 2012, dated 2025).

“Also recorded” adds a separate entry of the source. Peptide text beside a SMILES is read from it.

Experiment [1] relates to HaCaT cells. In words: Cell death assay in HaCaT keratinocytes (Example 3). It counts as cell-based, human. The procedure: In an initial experiment, various concentrations of SOR-C13 and SOR-C27 were tested on human keratinocytes (HaCaT cells) for their ability to cause cell death. The negative control was Phosphate Buffered Saline (PBS) and the positive control was Glycolic Acid (20 mM), a known activator of TRPV3. At the concentrations used (10, 100 and 1000 μM) only the 1000 μM concentration produced a statistically significant increase in cell death over PBS (FIG. 6). […] The two peptides appeared to be indistinguishable in their activity with respect to the number of dead cells
Both peptides were dissolved in PBS at 30 mM concentration at ambient temperature based on the peptide content with a correction factor (SOR-C13 concentration was multiplied by 1.19, while SOR-C27 concentration was multiplied by 1.29). Stock solutions were sterilized by passing through a 0.2 μm syringe filter prewashed with PBS. Stocks of peptides were kept at −20° C. during the study.
Human immortalized keratinocyte HaCaT cells (Cat. #T0020001) were from Addexbio Technologies (San Diego, California, USA). In general, HaCaT cells were cultured in 37° C. CO2 incubator in DEME with 1.0 g/L glucose (Lonza, Cat #12-707F) with 10% FBS. Glutamine (2 mM), penicillin (100 I.U.) and streptomycin (100 μg/ml) were added to the media. Cells were sub-cultured twice per week using Trypsin-0.25% EDTA to detach cells.
HaCaT cells were plated at ˜8×10^5/well in each well of the 12-well tissue culture plates in triplicates in 2 ml culture media. Twenty-four (24) hours post-plating, cells were treated with PBS, or SOR-C13 at 10, 100 and 1000 μM, or SOR-C27 at 10, 100 and 1000 μM, or glycolic acid at 20 mM.
At 72 hours post-treatment, the incubation was terminated and supernatant was collected. Attached cells were washed with 2 ml PBS, and trypsinized. Suspension of cells was combined with supernatant and spun at 1000 g for 5 minutes. The cell pellet was then resuspended in 100 μl PBS for cell counting using trypan blue exclusion.
Student's t-test was used to compare the group treated with a test article vs. the group treated with PBS. Standard errors of mean (SEM) were used to represent variation of data.

In experiment [2] the test system is HaCaT cells. Description: Wound healing assay in HaCaT cells with SOR-C13 fragments (Example 5). It counts as cell-based, human. Particulars: 24 hours. The method, then: HaCaT cells were plated at 1.6×10^5 per well in 24-well tissue culture plates in 1 ml of DMEM low glucose medium with 10% FBS. After 3 days, when the cells in each well were ˜100% confluent, a gap at the bottom of each well was generated by scratching with a sterile pipette tip. Supernatant was aspirated and cells were washed gently once with PBS. Fresh media (MEGM Bullet Kit, (Lonza, Cat. #CC-3150) containing bovine pituitary extracts (BPE), hEGF, insulin, and hydrocortisone was added after the wash with peptides. After 24 hours, cells were fixed with 2% paraformaldehyde with 15-minute incubation. Fixed cells were rinsed with PBS. Cells in each well were then examined under the microscope to semi-quantify the gap closure by cell migration. A digital camera fixed to the microscope was used to capture images of cells. The width of gap was measured by a ruler semi-quantitatively on the image. Under visual inspection, the wound healing results were also scored as “−”; “+”; “++”; or “+++” using the same criteria as set out in Example 4.
The effect of the peptides on tissue repair was determined using a wound healing assay that measures the migration of HaCaT cells. Gap size prior to and after treatment was semi-quantified by measuring the size of each gap on a digital photograph of the cells.

Consider `CC(C)C[C@H](NC(=O)[C@H](Cc1ccccc1)NC(=O)[C@H](CCC(=O)O)NC(=O)[C@@H](N)CCCCN)C(=O)N[C@@H](Cc1cnc[nH]1)C(=O)N1CCC[C@H]1C(=O)N[C@@H](CO)C(=O)N[C@@H](CCCCN)C(=O)N[C@H](C(=O)N[C@@H](CC(=O)O)C(=O)N[C@@H](CC(C)C)C(=O)N1CCC[C@H]1C(=O)N[C@@H](CCCNC(=N)N)C(=O)O)C(C)C` [SOR-C13, KEFLHPSKVDLPR] (H-KEFLHPSKVDLPR-OH), for which the “increase in cell death compared to PBS treatment” value in the experiment on HaCaT cells [1] (1 mM, 72-hour incubation) is recorded as about 2 fold. Further, the “induction of cell death compared to PBS” value in the experiment on HaCaT cells [1] (1 mM, 72 hours, p<0.05) is recorded as “significantly induced cell death”; in the experiment with HaCaT cells [1] (10 or 100 μM, 72 hours) it was “no significant difference in the numbers of dead cells; also recorded: did not have a significant effect”. The “number of dead cells” value in the experiment with HaCaT cells [1] (1 mM, 72 hours, trypan blue exclusion) was ~2.2×10^4 /well. Moreover, the “wound healing response, gap closure” value with HaCaT cells [2] (1000 μM) was “no response”; in the experiment with HaCaT cells [2] (two lowest concentrations (10 and 100 μM)) it was “very good response”. Besides, the “concentration dependence of wound healing response / gap closure” value in the experiment on HaCaT cells [2] (10, 100 and 1000 μM) is listed as “lower concentrations of SOR-C13 are more effective than higher concentrations; also recorded: lower concentrations are more effect than higher concentrations”.
